The text below walks through data of patent publication US20210038607A1, “OXADIAZOLYLTHIOPHENE DERIVATIVES USEFUL AS HISTONE DEACETYLASE INHIBITORS” (Karus Therapeutics Limited, priority 2018, published 2021).

Broadly, the IC50 is the concentration at which inhibition is half-maximal.

The assay has as its target T1, Recombinant human HDAC6 (Homo sapiens, UniProt Q9UBN7).
T1 construct: full length, MW=159 kDa; GST (N); host or cells: Sf9 insect cells (baculovirus)
T1 sequence (Q9UBN7 1-1215): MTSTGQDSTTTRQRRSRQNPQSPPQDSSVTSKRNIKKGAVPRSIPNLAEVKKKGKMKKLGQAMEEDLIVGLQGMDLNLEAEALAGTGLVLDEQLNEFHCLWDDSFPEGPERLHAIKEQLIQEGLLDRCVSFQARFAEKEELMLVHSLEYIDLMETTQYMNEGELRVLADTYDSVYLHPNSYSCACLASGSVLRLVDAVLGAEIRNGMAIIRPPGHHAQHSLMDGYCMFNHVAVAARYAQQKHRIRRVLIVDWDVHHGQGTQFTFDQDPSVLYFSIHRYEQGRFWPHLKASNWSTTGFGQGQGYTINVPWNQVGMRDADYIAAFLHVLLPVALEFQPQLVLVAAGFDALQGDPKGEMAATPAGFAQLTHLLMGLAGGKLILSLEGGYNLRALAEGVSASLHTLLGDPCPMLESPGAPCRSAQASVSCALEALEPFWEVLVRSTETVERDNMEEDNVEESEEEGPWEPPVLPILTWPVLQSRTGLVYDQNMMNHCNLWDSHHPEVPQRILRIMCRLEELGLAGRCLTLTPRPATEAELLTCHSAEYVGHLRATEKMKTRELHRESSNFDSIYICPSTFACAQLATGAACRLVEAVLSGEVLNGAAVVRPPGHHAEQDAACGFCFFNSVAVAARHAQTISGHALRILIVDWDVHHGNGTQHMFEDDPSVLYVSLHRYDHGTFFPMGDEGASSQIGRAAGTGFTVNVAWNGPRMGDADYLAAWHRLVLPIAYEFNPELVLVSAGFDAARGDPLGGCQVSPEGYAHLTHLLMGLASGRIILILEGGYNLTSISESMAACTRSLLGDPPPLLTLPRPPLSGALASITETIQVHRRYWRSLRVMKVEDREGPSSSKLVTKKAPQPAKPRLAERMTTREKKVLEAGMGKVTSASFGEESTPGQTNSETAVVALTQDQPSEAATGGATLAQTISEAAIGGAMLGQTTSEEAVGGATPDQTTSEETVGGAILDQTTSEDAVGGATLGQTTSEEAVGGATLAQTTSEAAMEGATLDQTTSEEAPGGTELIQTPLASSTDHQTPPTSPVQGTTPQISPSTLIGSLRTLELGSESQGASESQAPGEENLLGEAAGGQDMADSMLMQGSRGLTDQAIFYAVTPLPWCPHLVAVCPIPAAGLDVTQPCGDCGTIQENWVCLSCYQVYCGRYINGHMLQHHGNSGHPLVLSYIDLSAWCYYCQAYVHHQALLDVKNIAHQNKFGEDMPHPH
Briefly: HDAC6 biochemical assay, AMC-labeled peptide substrate. The method, boiled down:
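Two-step fluorogenic read-out: enzyme deacetylates 50 μM RHKK(Ac)AMC for 1 h at 30° C in pH 8.0 Tris buffer with BSA and 1% DMSO, then developer cleavage gives signal at Ex 360/Em 460. Enzyme: 0.3 ng/ul recombinant full-length human HDAC6, GST-tagged, Sf9-expressed.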

Where [1] appears, read: HDAC6, read-out: HDAC Isoform IC50 (nM) 6.

Each structure is given as a SMILES string. Like-named read-outs stand apart in the source and are kept apart here.

Regarding `O=C(c1cnnc(N(Cc2ccc(-c3noc(C(F)(F)F)n3)s2)c2cnccn2)c1)N1CC2(COC2)C1` [Example FZ, 5-{2-Oxa-6-azaspiro[3.3]heptane-6-carbonyl}-N-(pyrazin-2-yl)-N-({5-[5-(trifluoromethyl)-1,2,4-oxadiazol-3-yl]thiophen-2-yl}methyl)pyridazin-3-amine], under setting [1], the IC50 was at most 500 nM.
Still for that read-out and setting: the same measure for `FC(F)(F)c1nc(-c2ccc(CN(c3cnccn3)c3cc(N4CCOCC4)cnn3)s2)no1` [Example FP, 5-(Morpholin-4-yl)-N-(pyrazin-2-yl)-N-({5-[5-(trifluoromethyl)-1,2,4-oxadiazol-3-yl]thiophen-2-yl}methyl)pyridazin-3-amine]: at most 500 nM; for `FC(F)(F)c1cnc(N(Cc2ccc(-c3noc(C(F)(F)F)n3)s2)c2cnccn2)cn1` [Example BK, N-(Pyrazin-2-yl)-5-(trifluoromethyl)-N-({5-[5-(trifluoromethyl)-1,2,4-oxadiazol-3-yl]thiophen-2-yl}methyl)pyrazin-2-amine]: at most 10000 nM.
Same read-out and setting: the same measure for `Cc1cnnc(N(Cc2ccc(-c3noc(C(F)(F)F)n3)s2)c2cnccn2)c1` [Example GN, 5-Methyl-N-(pyrazin-2-yl)-N-({5-[5-(trifluoromethyl)-1,2,4-oxadiazol-3-yl]thiophen-2-yl}methyl)pyridazin-3-amine]: at most 500 nM; for `O=C(c1cnnc(N(Cc2ccc(-c3noc(C(F)(F)F)n3)s2)c2cnccn2)c1)N1CCC1` [Example FS, 5-(Azetidine-1-carbonyl)-N-(pyrazin-2-yl)-N-({5-[5-(trifluoromethyl)-1,2,4-oxadiazol-3-yl]thiophen-2-yl}methyl)pyridazin-3-amine]: at most 500 nM.
Same read-out and setting: the same measure for `O=C(O)c1ccc(N(Cc2sc(-c3noc(C(F)(F)F)n3)cc2F)c2cnccn2)nn1` [Example EZ, 6-[({3-Fluoro-5-[5-(trifluoromethyl)-1,2,4-oxadiazol-3-yl]thiophen-2-yl}methyl)(pyrazin-2-yl)amino]pyridazine-3-carboxylic acid]: at most 10000 nM.
Turning to `FC(F)(F)c1cnnc(N(Cc2ccc(-c3noc(C(F)(F)F)n3)s2)c2cnccn2)c1` [Example EF, N-(Pyrazin-2-yl)-5-(trifluoromethyl)-N-({5-[5-(trifluoromethyl)-1,2,4-oxadiazol-3-yl]thiophen-2-yl}methyl)pyridazin-3-amine], the half-inhibitory concentration (IC50) under setting [1] was at most 500 nM.
Regarding `O=C(c1cnnc(N(Cc2ccc(-c3noc(C(F)(F)F)n3)s2)c2cnccn2)c1)N1CCOCC1` [Example EB, 5-(Morpholine-4-carbonyl)-N-(pyrazin-2-yl)-N-({5-[5-(trifluoromethyl)-1,2,4-oxadiazol-3-yl]thiophen-2-yl}methyl)pyridazin-3-amine], the half-maximal inhibitory concentration (IC50) under setting [1] was at most 500 nM and the IC50 (With assay conditions in the experimental section described herein, read-out: HDAC6 IC50) came out at 99.1 nM.
In the case of `[O-][S+]1CCN(Cc2ccc(N(Cc3ccc(-c4noc(C(F)(F)F)n4)s3)c3cnccn3)nn2)CC1` [Example FO, 4-({6-[(Pyrazin-2-yl)({5-[5-(trifluoromethyl)-1,2,4-oxadiazol-3-yl]thiophen-2-yl}methyl)amino]pyridazin-3-yl}methyl)-1lambda4-thiomorpholin-1-one], the 50% inhibitory concentration (IC50) under setting [1] was at most 500 nM.
Still for that read-out and setting: the same measure for `FC(F)(F)c1nc(-c2ccc(CN(c3cnccn3)c3cc(CN4CCCC4)ccn3)s2)no1` [Example GG, N-{4-[(Pyrrolidin-1-yl)methyl]pyridin-2-yl}-N-({5-[5-(trifluoromethyl)-1,2,4-oxadiazol-3-yl]thiophen-2-yl}methyl)pyrazin-2-amine]: at most 1000 nM; for `Cc1cnc(N(Cc2ccc(-c3noc(C(F)(F)F)n3)s2)c2cnccn2)cn1` [Example BH, 5-Methyl-N-(pyrazin-2-yl)-N-({5-[5-(trifluoromethyl)-1,2,4-oxadiazol-3-yl]thiophen-2-yl}methyl)pyrazin-2-amine]: at most 500 nM.
On the same count and under the same terms, the figure for `CC(F)(F)c1cnnc(N(Cc2ccc(-c3noc(C(F)(F)F)n3)s2)c2cnccn2)c1` [Example GU, 5-(1,1-Difluoroethyl)-N-(pyrazin-2-yl)-N-({5-[5-(trifluoromethyl)-1,2,4-oxadiazol-3-yl]thiophen-2-yl}methyl)pyridazin-3-amine] is at most 500 nM.
The same measure, in the same setting: the same measure for `CN(C)C1CN(C(=O)c2cnnc(N(Cc3ccc(-c4noc(C(F)(F)F)n4)s3)c3cnccn3)c2)C1` [Example FX, 5-[3-(Dimethylamino)azetidine-1-carbonyl]-N-(pyrazin-2-yl)-N-({5-[5-(trifluoromethyl)-1,2,4-oxadiazol-3-yl]thiophen-2-yl}methyl)pyridazin-3-amine]: at most 500 nM; for `CN1CCN(C(=O)c2cnnc(N(Cc3ccc(-c4noc(C(F)(F)F)n4)s3)c3cnccn3)c2)CC1` [Example EC, 5-(4-Methylpiperazine-1-carbonyl)-N-(pyrazin-2-yl)-N-({5-[5-(trifluoromethyl)-1,2,4-oxadiazol-3-yl]thiophen-2-yl}methyl)pyridazin-3-amine]: at most 500 nM.
In the case of `COc1cncc(N(Cc2ccc(-c3noc(C(F)(F)F)n3)s2)c2cc(C(F)(F)F)cnn2)n1` [Example EN, N-(6-Methoxypyrazin-2-yl)-5-(trifluoromethyl)-N-({5-[5-(trifluoromethyl)-1,2,4-oxadiazol-3-yl]thiophen-2-yl}methyl)pyridazin-3-amine], the half-inhibitory concentration (IC50) under setting [1] was at most 500 nM.
Still for that read-out and setting: the same measure for `NC(=O)c1cnnc(N(Cc2ccc(-c3noc(C(F)(F)F)n3)s2)c2cnccn2)c1` [Example DX, 6-[(Pyrazin-2-yl)({5-[5-(trifluoromethyl)-1,2,4-oxadiazol-3-yl]thiophen-2-yl}methyl)amino]pyridazine-4-carboxamide]: at most 500 nM; for `CC1(c2cnnc(N(Cc3ccc(-c4noc(C(F)(F)F)n4)s3)c3cnccn3)c2)COC1` [Example GT, 5-(3-Methyloxetan-3-yl)-N-(pyrazin-2-yl)-N-({5-[5-(trifluoromethyl)-1,2,4-oxadiazol-3-yl]thiophen-2-yl}methyl)pyridazin-3-amine]: at most 500 nM; for `O=C(c1ccc(N(Cc2ccc(-c3noc(C(F)(F)F)n3)s2)c2cnccn2)nn1)N1CCC1` [Example FF, 6-(Azetidine-1-carbonyl)-N-(pyrazin-2-yl)-N-({5-[5-(trifluoromethyl)-1,2,4-oxadiazol-3-yl]thiophen-2-yl}methyl)pyridazin-3-amine]: at most 500 nM.
For `O=C(O)c1cnnc(N(Cc2ccc(-c3noc(C(F)(F)F)n3)s2)c2cnccn2)c1` [Example DW, 6-[(Pyrazin-2-yl)({5-[5-(trifluoromethyl)-1,2,4-oxadiazol-3-yl]thiophen-2-yl}methyl)amino]pyridazine-4-carboxylic acid], the IC50 under setting [1] was at most 500 nM.
Turning to `FC(F)(F)c1nc(-c2ccc(CN(c3cnccn3)c3cnc(N4CCOCC4)cn3)s2)no1` [Example BM, 5-(Morpholin-4-yl)-N-(pyrazin-2-yl)-N-({5-[5-(trifluoromethyl)-1,2,4-oxadiazol-3-yl]thiophen-2-yl}methyl)pyrazin-2-amine], under setting [1], the concentration for half-maximal inhibition (IC50) was at most 10000 nM.
For `COc1nccnc1N(Cc1ccc(-c2noc(C(F)(F)F)n2)s1)c1cnccn1` [Example BF, 3-Methoxy-N-(pyrazin-2-yl)-N-({5-[5-(trifluoromethyl)-1,2,4-oxadiazol-3-yl]thiophen-2-yl}methyl)pyrazin-2-amine], under setting [1], the IC50 was at most 10000 nM.
As to `CC(C)(O)c1cnnc(N(Cc2ccc(-c3noc(C(F)(F)F)n3)s2)c2cnccn2)c1` [Example GS, 2-{6-[(Pyrazin-2-yl)({5-[5-(trifluoromethyl)-1,2,4-oxadiazol-3-yl]thiophen-2-yl}methyl)amino]pyridazin-4-yl}propan-2-ol], the half-inhibitory concentration (IC50) under setting [1] was at most 500 nM.
Still for that read-out and setting: the figure for `CC(=O)Nc1cnnc(N(Cc2ccc(-c3noc(C(F)(F)F)n3)s2)c2cnccn2)c1` [Example FM, N-{6-[(Pyrazin-2-yl)({5-[5-(trifluoromethyl)-1,2,4-oxadiazol-3-yl]thiophen-2-yl}methyl)amino]pyridazin-4-yl}acetamide] is at most 500 nM.
